Counter-ions that a name gives are not always drawn.
Key:
[1] = cited from earlier work
[2] = cited from earlier work; remark: listed apart in the source
[3] = in vivo; cited from earlier work
α1-AR 1D = target: T1, α1-AR 1D (Homo sapiens, UniProt P25100); assay type: binding
T1 construct: expressed in transfected cells; host or cells: HEK-293
T1 sequence (P25100 1-572): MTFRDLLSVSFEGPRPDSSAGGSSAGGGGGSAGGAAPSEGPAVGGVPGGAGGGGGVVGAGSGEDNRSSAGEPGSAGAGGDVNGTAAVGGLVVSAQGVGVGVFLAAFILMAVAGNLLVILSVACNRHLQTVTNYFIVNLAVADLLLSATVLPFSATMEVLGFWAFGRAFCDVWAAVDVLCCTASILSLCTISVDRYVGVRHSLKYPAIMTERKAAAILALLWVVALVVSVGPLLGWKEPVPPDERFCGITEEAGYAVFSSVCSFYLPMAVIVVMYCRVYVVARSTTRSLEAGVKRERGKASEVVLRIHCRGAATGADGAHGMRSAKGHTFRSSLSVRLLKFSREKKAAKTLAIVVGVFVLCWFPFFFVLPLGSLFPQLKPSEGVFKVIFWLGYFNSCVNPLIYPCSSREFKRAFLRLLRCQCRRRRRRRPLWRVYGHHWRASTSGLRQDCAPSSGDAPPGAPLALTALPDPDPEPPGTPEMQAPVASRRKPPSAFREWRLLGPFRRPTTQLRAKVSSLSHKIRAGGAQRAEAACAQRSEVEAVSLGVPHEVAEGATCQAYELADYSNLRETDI

[4] = target: T2, 1A subtype (α-1 adrenergic receptor) (Homo sapiens, UniProt P35348); conditions: cited from earlier work
T2 sequence (P35348 1-466): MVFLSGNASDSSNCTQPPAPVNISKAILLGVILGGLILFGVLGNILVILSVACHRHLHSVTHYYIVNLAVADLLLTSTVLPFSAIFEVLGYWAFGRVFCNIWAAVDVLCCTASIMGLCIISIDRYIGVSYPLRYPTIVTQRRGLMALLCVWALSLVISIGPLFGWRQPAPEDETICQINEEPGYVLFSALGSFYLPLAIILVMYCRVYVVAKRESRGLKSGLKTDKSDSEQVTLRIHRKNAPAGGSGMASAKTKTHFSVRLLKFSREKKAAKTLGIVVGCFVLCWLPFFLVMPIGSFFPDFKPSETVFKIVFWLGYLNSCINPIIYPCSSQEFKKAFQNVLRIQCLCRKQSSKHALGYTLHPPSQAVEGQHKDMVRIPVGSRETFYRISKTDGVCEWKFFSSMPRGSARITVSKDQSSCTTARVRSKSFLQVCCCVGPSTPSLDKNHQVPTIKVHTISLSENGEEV

[5] = tested on: VC and laryngeal muscles/laryngospasm; conditions: rat model; cited from earlier work
[6] = recommended single intravenous injection
[7] = single intramuscular and intravenous doses
[8] = subcutaneous injection of 10 mg

## COc1cc2nc(N(C)CCCNC(=O)C3CCCO3)nc(N)c2cc1OC.Cl (racemic) [ALFUZOSIN, (R,S)-N-[3-[(4-amino-6,7-dimethoxy-2-quinazolinyl)methylamino]propyl]tetrahydro-2-furancarboxamide hydrochloride]
[1]; clinical test subjects
  dizziness: 6%
  hypotension: 0.4%
  syncope: 0.2%

## COc1cc2nc(N3CCN(C(=O)C4CCCO4)CC3)nc(N)c2cc1OC.Cl (racemic) [TERAZOSIN, (RS)-Piperazine,1-(4-amino-6,7-dimethoxy-2-quinazolinyl)-4-[(tetra-hydro-2-furanyl)carbonyl]-, monohydrochloride, dihydrate]
[1]; clinical test subjects
  syncope: 0.6%
[1]; trial of 600 subjects
  postural hypotension: 4%

## CCN1CC(CCN2CCOCC2)C(c2ccccc2)(c2ccccc2)C1=O (stereo not drawn) [Doxapram hydrochloride, 1-ethyl-4-[2-(4-morpholinyl)ethyl]-3,3-diphenyl-2-pyrrolidinone monohydrochloride, monohydrate]
[2]; [6]
  duration of effect: 5 to 12 min
  onset of respiratory stimulation: 20 to 40 s
  time of peak effect: 1 to 2 min

## O=C(CCCN1CC=C(n2c(=O)[nH]c3ccccc32)CC1)c1ccc(F)cc1 [Droperidol, 1-[1-[3-(p-Fluorobenzoyl)propyl]-1,2,3,6-tetrahydro-4-pyridyl]-2-benzimidazolinone]
[2]; human, in vivo
  duration of the tranquilizing and sedative effects: two to four hours
  persistence of alteration of alertness: as long as twelve hours
[2]; [7]
  onset of action: three to ten minutes
  time until peak effect apparent: up to thirty minutes

## CCC(=O)C(CC(C)N(C)C)(c1ccccc1)c1ccccc1 (stereo not drawn) [Methadone]
[3]
  metabolism (enzymes / pathway): CYP3A4, CYP2B6 and CYP2D6

## NC[C@H](O)c1ccc(O)c(O)c1 [NE]
α1-AR 1D
  affinity and potency at α1-AR 1D compared with other subtypes: highest affinity and potency

## CN1CCC[C@H]1c1cccnc1 [Nicotine]
[3]
  crossing of the blood brain barrier: crosses the blood-brain barrier
  elimination half-life in the body: around two hours
  half-life: 1 to 2 h
  route of excretion: primarily excreted in urine
  time to reach the brain after inhalation: 10 to 20 s

## COc1cc2nc(N3CCN(C(=O)c4ccco4)CC3)nc(N)c2cc1OC.Cl [PRAZOSIN, 1-(4-amino-6,7-dimethoxy-2-quinazolinyl)-4-(2-furoyl) piperazine]
[1]; 1 mg BID/TID titrated up to 20 mg total QD
  Syncope and symptoms of hypotension, share of subjects receiving: 6-12%

## C[C@H](Cc1cc2c(c(C(N)=O)c1)N(CCCO)CC2)NCCOc1ccccc1OCC(F)(F)F [SILODOSIN, (3-Hydroxypropyl)-5-[(2R)-2-({2-[2-(2,2,2trifluoroethoxy)phenoxy]ethyl}amino)propyl]-2,3-dihydro-1H-indole-7-carboxamide]
[1]; Study of 897 subjects, 8 mg QD
  Dizziness and orthostatic hypotension: 3%
  subjects with syncope / subjects in study: 1/897

## CCOc1ccccc1OCCN[C@H](C)Cc1ccc(OC)c(S(N)(=O)=O)c1 [TAMSULOSIN, (-)-(R)-5-[2-[[2-(o-Ethoxyphenoxy)ethyl]amino]propyl]-2-methoxybenzenesulfon-amide, monohydrochloride]
[1]; Dose (0.4-0.8 mg QD)
  incidence of hypotension, syncope, vertigo: 0.2%-0.6%
[4]
  greater binding affinity at the 1A subtype over other α-1 antagonists: 12-30 times

## C=CCN1CC[C@]23c4c5ccc(O)c4O[C@H]2C(=O)CC[C@@]3(O)[C@H]1C5.Cl [naloxone, 17-Allyl-4,5α-epoxy-3,14-dihydroxymorphinan-6-one hydrochloride]
[5]
  dose at which naloxone has an effect: > 0.8 mg/kg

## CC[C@@H]1C(=O)OC[C@@H]1Cc1cncn1C [pilocarpine HCl]
[2]; [8]
  salivation: 1 L
  sweating: 0.5 to 1.0 L

Reference: US20230091671A1 (priority 2020, published 2023)
